# Assay results taken from patent publication US11806367B2, “Methods of treating lysosomal disorders” (The Regents of the University of California, priority 2017, dated 2023).
# Like-named read-outs stand apart in the source and are kept apart here.
# Key:
# Ctns^−/− mice = test system: Ctns^−/− mice
# Procedure: Ctns^−/− mice were exposed to myeloablative drugs currently used in clinic for HSC transplantation, Busulfan (Bu) and Cyclophosphamide (Cy) to test if drug-mediated myeloablation allow efficient engraftment of Ctns-expressing HSC in the preclinical model, decreased tissue cystine and to determine if any unexpected toxicity occurs because of cystinosis. Drugs were injected intraperitoneally (IP) in Ctns^−/− mice and WT mice as controls.
# [1] = affected patients; cited from earlier work
smiles,measurement,setting,value
"O=P1(N(CCCl)CCCl)NCCCO1 (stereo not shown) [Cy, Cyclophosphamide]",toxicity in Ctns^−/− mice,"Ctns^−/− mice; IP injection, 4 months post-transplant, compared to WT controls",not toxic
"CS(=O)(=O)OCCCCOS(C)(=O)=O [Bu, Busulfan]",donor cell engraftment measured in the peripheral blood,Ctns^−/− mice; 4 months post-transplant,94.0±0.8%
same,toxicity in Ctns^−/− mice,"Ctns^−/− mice; mouse, in vivo, ip",not toxic
"NCCS [cysteamine, mercaptoethylamine]",effect on renal Fanconi syndrome,[1],has no effect
